Patent US11667602B2, “Compounds and their use” (AstraZeneca AB, priority 2020, dated 2023)

Target: T1, human RXFP1 (Homo sapiens, UniProt Q9HBX9)
T1 sequence (Q9HBX9 1-757): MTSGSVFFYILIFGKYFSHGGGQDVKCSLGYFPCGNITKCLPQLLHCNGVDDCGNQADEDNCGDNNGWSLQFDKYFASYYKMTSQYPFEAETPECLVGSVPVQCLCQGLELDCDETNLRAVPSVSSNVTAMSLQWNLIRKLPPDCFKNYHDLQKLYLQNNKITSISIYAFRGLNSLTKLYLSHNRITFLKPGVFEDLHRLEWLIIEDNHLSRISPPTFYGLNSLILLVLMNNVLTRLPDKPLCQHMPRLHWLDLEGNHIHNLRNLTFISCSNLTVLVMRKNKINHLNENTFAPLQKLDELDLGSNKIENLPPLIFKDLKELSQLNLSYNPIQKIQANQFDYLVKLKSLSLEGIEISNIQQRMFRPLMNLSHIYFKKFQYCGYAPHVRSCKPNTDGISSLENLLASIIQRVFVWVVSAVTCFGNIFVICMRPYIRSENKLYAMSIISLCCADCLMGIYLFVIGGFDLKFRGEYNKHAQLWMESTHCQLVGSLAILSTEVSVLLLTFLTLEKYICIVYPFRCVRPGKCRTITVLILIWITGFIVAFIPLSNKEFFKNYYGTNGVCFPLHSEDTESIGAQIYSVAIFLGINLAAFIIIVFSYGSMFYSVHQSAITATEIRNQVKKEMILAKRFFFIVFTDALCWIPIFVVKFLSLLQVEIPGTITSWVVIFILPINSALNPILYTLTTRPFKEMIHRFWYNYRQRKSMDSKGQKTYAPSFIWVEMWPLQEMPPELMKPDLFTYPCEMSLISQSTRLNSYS
Test: RXFP1 Hu cAMP (Test A)
Type: cell-based
Set-up: expressed in transfected cells; host or cells: Jump-In T-REx CHO-K1 cells (ThermoFisher), induced with 10 ng/ml doxycycline for 24 h
Conditions: RXFP1 Hu cAMP; for EC50: read-out: Test A EC50
Method in brief: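 CHO-K1 (Jump-In T-REx), RXFP1 induced w/ 10 ng/ml doxycycline 24 h, cryopreserved. 0.5 mM IBMX final. cAMP by HTRF, 2 h RT, std curve.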

Test A Sinf | EC50 | Compound
100% | 0.2 µM | COc1cc(F)c(O[C@H]2C[C@@H](CC(=O)O)C2)cc1C(=O)N[C@@H]1[C@@H]2CC[C@@H](C2)[C@@H]1C(=O)Nc1cccc(S(=O)(=O)C(F)(F)F)c1 [Example 475, 2-((1S,3s)-3-(2-Fluoro-4-methoxy-5-(((1R,2R,3S,4S)-3-((3-((trifluoromethyl)sulfonyl)phenyl)carbamoyl)bicyclo[2.2.1]heptan-2-yl)carbamoyl)phenoxy)cyclobutyl)acetic acid]
– | > 40 µM | COc1cc(C#N)c(O[C@H]2CC[C@@](C)(C(=O)O)CC2)cc1C(=O)NC1CCC1C(=O)NCC1(C)CCC1 (single isomer, unassigned) [Example 572, (1R,4s)-4-(2-Cyano-4-methoxy-5-(((1S*,2R*)-2-(((1-methylcyclobutyl)methyl)carbamoyl)cyclobutyl)carbamoyl)phenoxy)-1-methylcyclohexane-1-carboxylic acid]
101% | 0.56 µM | COc1cc(C#N)c(O[C@H]2CC[C@@](C)(C(=O)O)CC2)cc1C(=O)N[C@@H]1CC[C@@H]1C(=O)NCC1(C)CCC1 (racemic) [Example 348]
90% | 0.18 µM | COc1cc(F)c(-c2ccc(C(=O)O)cc2)cc1C(=O)N[C@H]1[C@@H](C(=O)Nc2ccc(F)c(C(F)(F)F)c2)[C@@H]2C=C[C@H]1C2 (racemic) [Example 307, rac-2′-Fluoro-5′-(((1R,2R,3S,4S)-3-((4-fluoro-3-(trifluoromethyl)phenyl)carbamoyl)bicyclo[2.2.1]hept-5-en-2-yl)carbamoyl)-4′-methoxy-[1,1′-biphenyl]-4-carboxylic acid]
107% | 0.32 µM | COc1cc(F)c(-c2ccc(O)c(C(=O)O)c2)cc1C(=O)N[C@@H]1[C@H]2CC[C@H](C2)[C@@H]1C(=O)Nc1cccc(S(=O)(=O)C(F)(F)F)c1 (racemic) [Example 316, rac-2′-Fluoro-4-hydroxy-4′-methoxy-5′-(((1R,2S,3R,4S)-3-((3-((trifluoromethyl)sulfonyl)phenyl)carbamoyl)bicyclo[2.2.1]heptan-2-yl)carbamoyl)-[1,1′-biphenyl]-3-carboxylic acid]
111% | 1.2 µM | COc1cc(F)c(OC[C@H]2CC[C@@H](C(=O)O)CC2)cc1C(=O)N[C@@H]1[C@H]2CC[C@H](C2)[C@@H]1C(=O)Nc1cccc(S(=O)(=O)C(F)(F)F)c1 [Example 440]
91% | 0.17 µM | COc1cc(F)c(O[C@H]2CC[C@@](C)(C(=O)O)CC2)cc1C(=O)N[C@@H]1[C@@H](OC)CC[C@@H]1C(=O)Nc1cccc(S(=O)(=O)C(F)(F)F)c1 (racemic) [Example 359]
116% | 0.57 µM | COc1cc(F)c(O[C@H]2CC[C@@](C)(C(=O)O)CC2)cc1C(=O)N[C@@H]1[C@H]2CC[C@H](C2)[C@@H]1C(=O)NCC1(C#N)CCC1 [Example 595]
118% | 0.11 µM | COc1cc(C#N)c(O[C@H]2CC[C@@](C)(C(=O)O)CC2)cc1C(=O)Nc1cc(Cl)ccc1C(=O)NCC1(c2ccccc2)CC1 [Example 158]
104% | 0.0078 µM | COC[C@]1(C(=O)O)CC[C@@H](Oc2cc(C(=O)N[C@@H]3[C@@H]4CC[C@@H](C4)[C@@H]3C(=O)Nc3cccc(S(=O)(=O)C(F)(F)F)c3)c(OC)cc2F)CC1 [Example 479]
74% | 7.8 µM | COc1cc(F)c(-c2ccc(C(=O)O)cc2)cc1C(=O)N[C@H]1[C@@H]2CC[C@@H](C2)[C@H]1C(=O)N[C@H]1CCCN(S(=O)(=O)C(F)(F)F)C1 (single isomer, unassigned) [Example 314, 2′-Fluoro-4′-methoxy-5′-(((1R*,2S*,3R*,4S*)-3-(((S)-1-((trifluoromethyl)sulfonyl)piperidin-3-yl)carbamoyl)bicyclo[2.2.1]heptan-2-yl)carbamoyl)-[1,1′-biphenyl]-4-carboxylic acid]
– | > 40 µM | COc1cc(F)c(-c2ccc(C(=O)O)cc2)cc1C(=O)N[C@H]1[C@@H](C(=O)Nc2cc(F)cc(C#N)c2)[C@@H]2C=C[C@H]1C2 (racemic) [Example 310]
95% | – | COc1cc(C#N)c(O[C@H]2CC[C@@](C)(C(=O)O)CC2)cc1C(=O)N[C@@H]1[C@H]2CC[C@H](C2)[C@@H]1C(=O)N[C@H](C)C1CCCCC1 [Example 120]
115% | 0.012 µM | COc1cc(F)c(O[C@H]2CC[C@@H](C(=O)O)CC2)cc1C(=O)N[C@H]1[C@@H](C(=O)Nc2ccc(F)c(S(=O)(=O)C(F)(F)F)c2)[C@@H]2C=C[C@H]1C2 [Example 489]
– | > 40 µM | COc1cc(F)c(Cn2ccc(C(=O)O)n2)cc1C(=O)N[C@@H]1[C@H]2CC[C@H](C2)[C@@H]1C(=O)Nc1cccc(S(=O)(=O)C(F)(F)F)c1 [Example 222, 1-(2-Fluoro-4-methoxy-5-(((1S,2R,3S,4R)-3-((3-((trifluoromethyl)sulfonyl)phenyl)carbamoyl)bicyclo[2.2.1]heptan-2-yl)carbamoyl)benzyl)-1H-pyrazole-3-carboxylic acid]
129% | – | COc1cc(F)c(OCCCC(=O)O)cc1C(=O)N[C@H]1[C@@H](C(=O)Nc2cccc(S(=O)(=O)C(F)(F)F)c2)[C@@H]2C=C[C@H]1C2 (racemic) [Example 456]
78% | – | COc1cc(F)c(O[C@@H]2C[C@@H]3[C@H](C2)[C@H]3C(=O)O)cc1C(=O)N[C@@H]1[C@H]2CC[C@H](C2)[C@@H]1C(=O)NCC1(C)CCC1 (racemic) [Example 425, (1RS,3SR,5SR,6RS)-3-(2-Fluoro-4-methoxy-5-(((1S,2R,3S,4R)-3-(((1-methylcyclobutyl)methyl)carbamoyl)bicyclo[2.2.1]heptan-2-yl)carbamoyl)phenoxy)bicyclo[3.1.0]hexane-6-carboxylic acid]
– | > 40 µM | COc1cc(F)c(O[C@H]2CC[C@@](C)(C(=O)O)CC2)cc1C(=O)NC1C(C(=O)Nc2cccc(S(=O)(=O)C(F)(F)F)c2)CC(O)C1O (single isomer, unassigned) [Example 562, (1R,4s)-4-(5-(((1S*,2R*,3S*,5S*)-2,3-Dihydroxy-5-((3-((trifluoromethyl)sulfonyl)phenyl)carbamoyl)cyclopentyl)carbamoyl)-2-fluoro-4-methoxyphenoxy)-1-methylcyclohexane-1-carboxylic acid]
155% | 2 µM | COc1cc(F)c(OCc2cccc(CC(=O)O)c2)cc1C(=O)N[C@H]1[C@@H](C(=O)Nc2cccc(S(=O)(=O)C(F)(F)F)c2)[C@@H]2C=C[C@H]1C2 (racemic) [Example 453]
– | > 40 µM | COc1cc(F)c(-c2ccc(C(=O)O)cc2)cc1C(=O)N[C@H]1[C@@H]2CC[C@@H](C2)[C@H]1C(=O)N[C@H]1CCCN(S(=O)(=O)C(F)(F)F)C1 (single isomer, unassigned) [Example 313, 2′-Fluoro-4′-methoxy-5′-(((1R*,2S*,3R*,4S*)-3-(((S)-1-((trifluoromethyl)sulfonyl)piperidin-3-yl)carbamoyl)bicyclo[2.2.1]heptan-2-yl)carbamoyl)-[1,1′-biphenyl]-4-carboxylic acid]
99% | 0.084 µM | COc1cc(C#N)c(O[C@H]2CC[C@@](C)(C(=O)O)CC2)cc1C(=O)N[C@@H]1[C@H]2CC[C@H](C2)[C@@H]1C(=O)NC[C@@H](F)c1ccccc1 [Example 131]

Compound | Test A Sinf | EC50
(1R,4s)-4-(2-Cyano-4-methoxy-5-(((1S*,2R*)-2-(((1-methylcyclobutyl)methyl)carbamoyl)cyclobutyl)carbamoyl)phenoxy)-1-methylcyclohexane-1-carboxylic acid [Example 573] | 94% | –
(1R,4s)-4-(2-Fluoro-4-methoxy-5-(((1S*,2R*,4R*)-4-methoxy-2-(neopentylcarbamoyl)cyclopentyl)carbamoyl)phenoxy)-1-methylcyclohexane-1-carboxylic acid [Example 547] | 114% | –
(1R,4s)-4-(2-Cyano-4-fluoro-5-(((2S*,3R*)-3-(((1-methylcyclobutyl)methyl)carbamoyl)bicyclo[2.2.2]octan-2-yl)carbamoyl)phenoxy)-1-methylcyclohexane-1-carboxylic acid [Example 589] | 83% | –
(1R,4s)-4-(2-Fluoro-4-methoxy-5-(((3S*,4R*)-4-(neopentylcarbamoyl)tetrahydrofuran-3-yl)carbamoyl)phenoxy)-1-methylcyclohexane-1-carboxylic acid [Example 567] | 86% | –
